Blank lines part the entries; values can stand above or below the substance they belong to.
Legend:
canine MC5R [1] = target: T1, canine MC5R (Canis lupus familiaris, UniProt A0A8I3MI44); test: Whole cell binding assay with radiolabeled NDP-MSH in transfected HEK293a cells; set-up: expressed in transfected cells; host or cells: HEK293 / HEK293a; settings: 75 pM label, 37° C., 1 hour; clones nos. 9 and 13; FIG. 5
Experimental: Transient transfection & Whole Cell Binding Assay. A 50% confluent cell culture plate containing HEK293 cells is used for transient transfection with various vector constructs using Fugene 6 as a transfection carrier (4 μl Fugene 6 per μg plasmid DNA). Cells are harvested 48 hours post transfection using Sigma dissociation buffer (Sigma Chemical Co., St. Louis, Mo.), then centrifuged and resuspended in binding buffer (50 mM HEPES, 5 mM MgCl, 0.1% BSA, pH 7.5, containing a Sigma P-8340 protease inhibitor cocktail). The resuspended cell population is counted using a hemacytometer. A cell volume titration is performed by pipetting varying volumes in triplicate into tubes. Either buffer or excess cold NDP-MSH (2 μM final conc.) is added. Excess cold NDP-MSH is used to ascertain non-specific binding. Radiolabeled (^125I) NDP-MSH is added such that the final concentration is 75 pM. The reaction is incubated at 37° C. for 1 hour, and then the reaction mixture is centrifuged at 5000×g for 10 minutes. The supernatant solution is removed by aspiration and radioisotope remaining with the cell pellet is counted in a gamma counter. FIG. 5 discloses the specific NDP-MSH binding to five canine MC5R/HEK293a cells (shown as “C5#_” in FIG. 5).

[2] = target: canine melanocortin 5 receptor (canine); test: cell-based or functional assay
canine MC5R [3] = target: T1, canine MC5R
Experimental: The following example discloses the measurement of canine MC5R-mediated cAMP accumulation in response to α-MSH stimulation.
As described above, MC5R, when activated by its agonist ligand, stimulates adenylyl cyclase to form cAMP. A commercially available kit (Adenylyl Cyclase Activation Flashplate Assay, NEN® Life Science Products, Inc., Boston, Mass., Cat # SMP004, SMP004A) is used to measure cAMP accumulation. An MC5R/HEK293 cell line is prepared. Cells are harvested using Sigma dissociation buffer, washed, centrifuged and resuspended in stimulation buffer, which is provided in the kit (Sigma Chemical Co., St. Louis, Mo.). The suspended cells are counted using a hemacytometer. Cells are pelleted again by centrifugation and resuspended with stimulation buffer to the desired concentration (0.5-5×10^6 cells per ml). A cell volume titration is performed by transferring varying volumes in triplicate into wells. For each cell concentration tested, a full agonist dose titration is performed, including a negative control. The agonists employed include [Nle^4,D-Phe^7]-α-MSH(NDP-MSH) and α-MSH. […]
The duration of stimulation by agonist is also varied (15-45 minutes). […] Stimulation of MC5R is determined by scillintation counting in a Wallac MICROBETA® scintillation counter (EG&G Wallac, Gaithersburg, Md.).

T1 sequence (A0A8I3MI44 1-325): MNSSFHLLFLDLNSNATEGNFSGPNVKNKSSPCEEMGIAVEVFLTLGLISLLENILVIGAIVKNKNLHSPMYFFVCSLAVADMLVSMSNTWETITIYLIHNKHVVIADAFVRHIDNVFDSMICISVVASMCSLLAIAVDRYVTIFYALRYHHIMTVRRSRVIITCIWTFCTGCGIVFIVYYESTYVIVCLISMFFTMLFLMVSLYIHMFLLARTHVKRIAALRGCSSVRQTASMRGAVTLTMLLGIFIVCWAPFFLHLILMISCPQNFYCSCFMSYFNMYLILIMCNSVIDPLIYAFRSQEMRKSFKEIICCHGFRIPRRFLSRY
Chain of canine melanocortin 5 receptor (canine) (chain, as listed by the source limits assumed): as the sequence (A0A8I3MI44 1-325) above, with H100Y, G314A counted along it

specific binding of radiolabeled (125I) NDP-MSH to canine MC5R/HEK293a cells (canine MC5R [1]): high level of specific binding
Substance: [Nle4,D-Phe7]-α-MSH [NDP-MSH]

EC50 of cAMP accumulation (Adenylyl Cyclase Activation Flashplate Assay), clone C9 [2]: 5 nM
fold stimulation of cAMP accumulation [2]: < 8 fold
Substance: α-melanocyte stimulating hormone (from UniProt P01189 138-150) (peptide)

Substance: α-melanocyte stimulating hormone [α-MSH]
sensitivity of MC5R clones to α-MSH compared with a MC4R clone (canine MC5R [3]; both MC5R clones versus a MC4R clone): more sensitive
stimulation of cAMP accumulation with α-MSH (canine MC5R [3]; three clones, FIG. 6): ≤ 8 fold

Source: patent US20030110518A1, “Melanocortin-5 receptor sequences and uses thereof” (priority 2001, published 2003)
